Measured values as given in US6624143B1, “Calcium salts of lipopeptide antibiotics, method for producing same and their use” (Aventis Pharma Deutschland GmbH, priority 1998, dated 2003).
Where a name gives a salt, the structure may show the parent alone. Read-outs that look alike come from different tables or passages of the source.

Key:
Assay type in all cases: cell-based
[1] = tested on: monkey blood; conditions: rhesus monkey, 3 h
Protocol: For the measurement of hemolytic activity, freshly taken, venous human, Rhesus monkey or beagle dog blood is used. The blood is collected in heparinized tubes and distributed in aliquots of 200 μl into 12 polyethylene tubes. One aliquot is treated with 200 μl of distilled water and used as a 100% standard, another is mixed with 200 μl of physiological saline solution (0.9% NaCl). 200 μl each of substance dilutions in physiological saline solution to 1600, 800, 400, 200, 100, 50, 25, 12.5, 6.25 and 3.125 mg/l are distributed into the other tubes. All tubes are carefully swung and then incubated for 3 hours at 37° C. The 100% standard is then made up with 5 ml of distilled water, the other tubes with 5 ml each of physiological saline solution, and centrifuged at 700 g for 5 minutes.
The hemolysis is determined by measurement of the absorption of the supernatant in a spectrophotometer at a wavelength of 540 nm. The absorption of the standard with complete hemolysis is set at 100%. The absorption of the test preparation dilutions and of the 0% standard are measured and indicated as a percentage of the maximally inducible hemolysis.

[2] = tested on: Streptoc. milleri, GR12; assay: serial dilution test, MIC; conditions: S
Source text: (§1) Table 3: In-vitro activity of the A1437D Ca salt against Gram-positive bacteria in the serial dilution test indicated as the minimum inhibitory concentration (MIC)

[3] = tested on: Streptoc. mitis, GR16; assay: serial dilution test, MIC; conditions: eryR
Source text: as §1

[4] = tested on: Staphyloc. coagul. negativ; assay: serial dilution test, MIC; conditions: oflR, oxaR, tetR
Source text: as §1

[5] = tested on: Staph. aureus, 11CB20; assay: serial dilution test, MIC; conditions: Staphylococcus aureus, oxaR, eryR, tetR
Source text: as §1

[6] = tested on: Enteroc. faecium, HT12; assay: serial dilution test, MIC; conditions: teiR, vanR, eryR, tetR
Source text: as §1

[7] = tested on: Streptoc. pyogenes, A1F16; assay: serial dilution test, MIC; conditions: eryR
Source text: as §1

[8] = tested on: Staph. aureus, 11HT1; assay: serial dilution test, MIC; conditions: Staphylococcus aureus, novR
Source text: as §1

[9] = tested on: Enteroc. faecalis, HM9; assay: serial dilution test, MIC; conditions: novR, vanR, eryR
Source text: as §1

[10] = tested on: Enteroc. faecium, AP9; assay: serial dilution test, MIC; conditions: vanR, teiR
Source text: as §1

[11] = tested on: Streptoc. pyogenes, A1SJ1; assay: serial dilution test, MIC; conditions: eryR
Source text: as §1

[12] = tested on: Staph. epidermidis, GO42; assay: serial dilution test, MIC; conditions: Staphylococcus epidermidis, oxaR
Source text: as §1

[13] = tested on: Enteroc. gallinarium, HM8; assay: serial dilution test, MIC; conditions: vanR, tetR
Source text: as §1

[14] = tested on: Staphyloc. aureus, 11HT3; assay: serial dilution test, MIC; conditions: S
Source text: as §1

[15] = tested on: Staph. aureus, 11GO64; assay: serial dilution test, MIC; conditions: Staphylococcus aureus, oflR, oxaR, eryR, novR
Source text: as §1

[16] = tested on: Enteroc. faecalis, UC5; assay: serial dilution test, MIC; conditions: ATCC 29212 novR
Source text: as §1

[17] = tested on: Streptoc. gr. G, GOCB2; assay: serial dilution test, MIC; conditions: tetR, rifR, novR
Source text: as §1

[18] = tested on: Enteroc. faecium, IP2; assay: serial dilution test, MIC; conditions: teiR, vanR, eryR, tetR
Source text: as §1

[19] = tested on: Staph. aureus, ATCC 13709; assay: serial dilution test, MIC; conditions: Staphylococcus aureus, ATCC13709
Source text: as §1

[20] = tested on: Staph. epidermidis, GO20; assay: serial dilution test, MIC; conditions: Staphylococcus epidermidis, tetR
Source text: as §1

[21] = tested on: Staph. aureus, 11DU5; assay: serial dilution test, MIC; conditions: Staphylococcus aureus, novR, tetR
Source text: as §1

[22] = tested on: Enteroc. faecium, HM3; assay: serial dilution test, MIC; conditions: teiR, vanR, eryR
Source text: as §1

[23] = tested on: Enteroc. faecalis, DU18; assay: serial dilution test, MIC; conditions: tetR, novR
Source text: as §1

[24] = tested on: Streptoc. pneumoniae 30B12; assay: serial dilution test, MIC; conditions: eryR
Source text: as §1

For `CC(C)CCCCCCC/C=C\CC(=O)N[C@@H](CC(N)=O)C(=O)N[C@@H]1C(=O)N2CCCC[C@@H]2C(=O)N[C@@H]([C@H](C)C(=O)O)C(=O)N[C@@H](CC(=O)O)C(=O)NCC(=O)N[C@@H](CC(=O)O)C(=O)NCC(=O)N[C@H]([C@@H](C)N)C(=O)N[C@@H](C(C)C)C(=O)N2CCC[C@H]2C(=O)N[C@@H]1C` [A1437D Ca salt], the “in vitro hemolysis, percentage of the maximally inducible hemolysis” value (shortened to “in vitro hemolysis, percentage”) ([1]; 12.5 mg/l) was 0%, the “in vitro hemolysis, percentage” value ([1]; 25 mg/l) was 0% and the “in vitro hemolysis, percentage” value ([1]; 50 mg/l) was 0%. For the same compound, the “in vitro hemolysis, percentage” value ([1]; 100 mg/l) was 3%, the “in vitro hemolysis, percentage” value ([1]; 200 mg/l) was 6% and the “in vitro hemolysis, percentage” value ([1]; 400 mg/l) was 9%. For the same compound, the “in vitro hemolysis, percentage” value ([1]; 800 mg/l) was 15%, the “in vitro hemolysis, percentage” value ([1]; 1600 mg/l) was 19% and the MIC [2] was 0.3 µg/mL. The MIC [3] was 0.3 µg/mL, the MIC [4] was 0.3 µg/mL and the MIC [5] was 0.6 µg/mL. The MIC [6] was 0.6 µg/mL, the MIC [7] was 0.6 µg/mL and the MIC [8] was 0.15 µg/mL. It also gave an MIC [9] of 2.5 µg/mL, an MIC [10] of 0.6 µg/mL and an MIC [11] of 0.6 µg/mL. The MIC [12] was 0.3 µg/mL, the MIC [13] was 0.15 µg/mL and the MIC [14] was 0.04 µg/mL. It also gave an MIC [15] of 0.6 µg/mL, an MIC [16] of 2.5 µg/mL and an MIC [17] of 0.3 µg/mL. The MIC [18] was 0.6 µg/mL, the MIC [19] was 0.6 µg/mL and the MIC [20] was 0.3 µg/mL. For the same compound, the MIC [21] was 0.08 µg/mL, the MIC [22] was 0.6 µg/mL and the MIC [23] was 0.6 µg/mL. The MIC [24] was 0.3 µg/mL.
